The results in this text go back to patent publication US9796711B2, “Substituted pyrazolo[3,4-b]pyridin-6-carboxylic acids and method of use” (AbbVie S.àr.l., priority 2015, dated 2017).

Assay [1] has as its target T1, ΔF508-CFTR (Homo sapiens, UniProt P13569, DEL508-508).
T1 construct: host or cells: CFBE41o-, doxycycline-inducible
Nature of the assay: CFTR cell surface levels using HRP-tagged ΔF508-CFTR expressing CFBE cells, in the presence of a co-corrector. The format is cell-based. Particulars: HRP-tagged ΔF508-CFTR expressing CFBE cells, in the presence of 3 μM co-corrector; for EC50: read-out: EC50. The method in brief:
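Cells were seeded with 0.5 μg/mL doxycycline and held 68 h at 37 °C. Test compounds plus 3 μM co-corrector (final 0.1% DMSO) were then added for 20 h at 33 °C. Washed cells received HRP substrate, and luminescence was normalized between DMSO and 3 μM co-corrector controls.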

Assay [2] has as its target T1, ΔF508-CFTR. In words: CFTR cell surface levels using HRP-tagged ΔF508-CFTR expressing CFBE cells, intrinsic corrector capacity. The format is cell-based. The following applies: for EC50: read-out: EC50. Put shortly:
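Here the cells express ΔF508-CFTR with horseradish peroxidase inserted in extracellular loop 4, so only rescued channel at the surface gives luminescent signal. Compounds act on their own, 20 h at the reduced temperature of 33 °C; values are percent activity relative to DMSO and a 3 μM corrector.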

The mark [3] stands for this setting: HRP-tagged ΔF508-CFTR CFBE41o- cells, compounds alone (intrinsic corrector capacity), 20 hours at 33° C., positive control 3 μM corrector.
[4] abbreviates: HRP-tagged ΔF508-CFTR CFBE41o- cells, compounds alone (intrinsic corrector capacity), 20 hours at 33° C.
Setting [5] is: HRP-tagged ΔF508-CFTR expressing CFBE cells, intrinsic corrector capacity (no co-corrector), 33° C., 20 hours.

T1 sequence (P13569 with tags, fused parts or gaps DEL508-508): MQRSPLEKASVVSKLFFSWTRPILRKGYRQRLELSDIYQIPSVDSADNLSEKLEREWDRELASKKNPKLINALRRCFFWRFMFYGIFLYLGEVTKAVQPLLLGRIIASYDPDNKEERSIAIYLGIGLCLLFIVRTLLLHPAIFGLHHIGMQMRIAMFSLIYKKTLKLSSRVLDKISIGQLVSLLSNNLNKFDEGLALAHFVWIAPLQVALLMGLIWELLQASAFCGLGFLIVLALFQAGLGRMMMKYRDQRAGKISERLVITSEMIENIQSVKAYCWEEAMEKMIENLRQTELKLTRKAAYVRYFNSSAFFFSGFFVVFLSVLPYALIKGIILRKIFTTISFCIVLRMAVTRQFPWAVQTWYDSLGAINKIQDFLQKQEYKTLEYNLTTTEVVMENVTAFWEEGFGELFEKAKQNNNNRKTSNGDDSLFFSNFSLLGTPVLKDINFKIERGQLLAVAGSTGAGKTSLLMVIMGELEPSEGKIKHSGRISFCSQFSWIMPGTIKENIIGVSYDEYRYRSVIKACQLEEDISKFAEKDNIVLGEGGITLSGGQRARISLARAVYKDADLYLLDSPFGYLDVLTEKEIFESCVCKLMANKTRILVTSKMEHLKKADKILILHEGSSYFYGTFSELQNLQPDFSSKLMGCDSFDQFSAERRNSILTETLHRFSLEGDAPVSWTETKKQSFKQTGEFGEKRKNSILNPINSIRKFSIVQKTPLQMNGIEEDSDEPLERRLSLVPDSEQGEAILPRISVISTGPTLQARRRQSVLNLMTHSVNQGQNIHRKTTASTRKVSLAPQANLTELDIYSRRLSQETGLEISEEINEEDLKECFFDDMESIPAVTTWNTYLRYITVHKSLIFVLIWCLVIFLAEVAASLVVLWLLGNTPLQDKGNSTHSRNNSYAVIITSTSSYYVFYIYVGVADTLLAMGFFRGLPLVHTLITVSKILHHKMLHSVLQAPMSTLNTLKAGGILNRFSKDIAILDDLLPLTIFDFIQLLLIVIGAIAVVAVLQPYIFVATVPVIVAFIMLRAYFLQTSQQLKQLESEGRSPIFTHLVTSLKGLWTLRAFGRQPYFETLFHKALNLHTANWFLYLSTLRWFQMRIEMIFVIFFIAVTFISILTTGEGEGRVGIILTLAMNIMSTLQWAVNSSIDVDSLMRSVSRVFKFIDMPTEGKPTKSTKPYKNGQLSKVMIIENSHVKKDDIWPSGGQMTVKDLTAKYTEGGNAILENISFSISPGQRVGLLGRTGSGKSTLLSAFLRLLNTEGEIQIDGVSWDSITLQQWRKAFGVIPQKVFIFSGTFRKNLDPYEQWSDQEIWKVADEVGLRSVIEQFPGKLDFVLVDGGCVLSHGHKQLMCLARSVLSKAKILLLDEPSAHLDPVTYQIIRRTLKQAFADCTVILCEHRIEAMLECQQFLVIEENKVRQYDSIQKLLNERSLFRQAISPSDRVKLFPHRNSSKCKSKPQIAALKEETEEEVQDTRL

By EC50 is commonly meant the concentration at which the effect is half-maximal. Regarding `Cc1cccc(-n2nc(C(C)C)c3c(N4CCC(CF)CC4)cc(C(=O)O)nc32)c1` [compound 348, 4-[4-(fluoromethyl)piperidin-1-yl]-1-(3-methylphenyl)-3-(propan-2-yl)-1H-pyrazolo[3,4-b]pyridine-6-carboxylic acid], the figures for the “% Activation” value in assay [1] and in assay [2] (setting [3]) were 410.3% and 217.2%, respectively. The EC50 turned out to be 370 nM in assay [1] and 553 nM in assay [2] (setting [4]).
Turning to `Cc1nn(-c2cccc(C(F)(F)F)c2)c2nc(C(=O)O)cc(-c3ccc(N4CCOCC4)nc3)c12` [compound 102, 3-methyl-4-[6-(morpholin-4-yl)pyridin-3-yl]-1-[3-(trifluoromethyl)phenyl]-1H-pyrazolo[3,4-b]pyridine-6-carboxylic acid], the “% Activation” value is 384% in assay [1] and 153% in assay [2] (setting [3]). Besides, the EC50 in assay [1] is 949 nM; in assay [2] (setting [4]), 1040 nM.
The like results for `CC(C)(C)OC(=O)N1CC(c2nn(-c3ccccc3)c3nc(C(=O)O)cc(-c4ccc(N5CCOCC5)cc4)c23)C1` [compound 47, 3-[1-(tert-butoxycarbonyl)azetidin-3-yl]-4-[4-(morpholin-4-yl)phenyl]-1-phenyl-1H-pyrazolo[3,4-b]pyridine-6-carboxylic acid] were, in that order, 390.5%, 183.2%, 567 nM and 608 nM.
Regarding `CC(C)c1nn(-c2ccc(F)cc2F)c2nc(C(=O)O)cc(-c3ccc(N4CCC(C#N)CC4)cc3)c12` [compound 327, 4-[4-(4-cyanopiperidin-1-yl)phenyl]-1-(2,4-difluorophenyl)-3-(propan-2-yl)-1H-pyrazolo[3,4-b]pyridine-6-carboxylic acid], the results for the “% Activation” value in assay [1] and in assay [2] (setting [3]) were 335.63% and 176%, respectively. Moreover, the EC50 in assay [1] was found to be 241 nM; in assay [2] (setting [4]), 369 nM.
The like results for `Cc1nn(-c2ccccc2)c2nc(C(=O)O)cc(O[C@H]3C[C@@H](N4CCCCC4)C3)c12` [compound 346, 3-methyl-1-phenyl-4-{[cis-3-(piperidin-1-yl)cyclobutyl]oxy}-1H-pyrazolo[3,4-b]pyridine-6-carboxylic acid] were, in that order, 151.2%, 20.555%, 4170 nM and 7500 nM.
The like results for `CC(C)c1nn(-c2cccc(N3CCOCC3)c2)c2nc(C(=O)O)cc(-c3ccc(N(C)C4CCOCC4)cc3)c12` [compound 208, 4-{4-[methyl(oxan-4-yl)amino]phenyl}-1-[3-(morpholin-4-yl)phenyl]-3-(propan-2-yl)-1H-pyrazolo[3,4-b]pyridine-6-carboxylic acid] were, in that order, 673.2%, 413.75%, 647 nM and 603 nM.
For `CC(=O)N1CCC(c2cc(C(=O)O)nc3c2c(C)nn3-c2ccccc2)CC1` [compound 138, 4-(1-acetylpiperidin-4-yl)-3-methyl-1-phenyl-1H-pyrazolo[3,4-b]pyridine-6-carboxylic acid] the same measures were 133.3%, 12.11%, over 10000 nM and over 10000 nM.
On to `CC(C)c1nn(C2CCCCC2)c2nc(C(=O)O)cc(OCC3CCOCC3)c12` [compound 603, 1-cyclohexyl-4-[(oxan-4-yl)methoxy]-3-(propan-2-yl)-1H-pyrazolo[3,4-b]pyridine-6-carboxylic acid], for which the “% Activation” value in assay [1] was determined as 273.3%; in assay [2] (setting [5]), 92.66%. Besides, the figures for the EC50 in assay [1] and in assay [2] (setting [5]) were 870 nM and 1760 nM, respectively.
Turning to `COCC1CN(c2cc(C(=O)O)nc3c2c(C)nn3-c2ccccc2)C1` [compound 294, 4-[3-(methoxymethyl)azetidin-1-yl]-3-methyl-1-phenyl-1H-pyrazolo[3,4-b]pyridine-6-carboxylic acid], the figures for the “% Activation” value in assay [1] and in assay [2] (setting [3]) were 225.5% and 73.275%, respectively. Further, the EC50 in assay [1] and in assay [2] (setting [4]) was 2510 nM in each case.
For the molecule `O=C(O)c1cc(OCCCF)c2c(C3CCC3)nn(-c3ccccc3)c2n1` [compound 489, 3-cyclobutyl-4-(3-fluoropropoxy)-1-phenyl-1H-pyrazolo[3,4-b]pyridine-6-carboxylic acid], in assay [1], the “% Activation” value is 274.95% and the EC50 came to 770 nM. In assay [2] (setting [5]), the “% Activation” value worked out at 106.4% and the EC50 stood at 1860 nM.
Take `CC(C)c1nn(-c2cccc(N(C)C)c2)c2nc(C(=O)O)cc(-c3ccc(N4CCC(C#N)CC4)cc3)c12` [compound 176]: the figures for the “% Activation” value in assay [1] and in assay [2] (setting [3]) were 619.28% and 382.28%, respectively. For the same molecule, the EC50 in assay [1] turned out to be 448 nM; in assay [2] (setting [4]), 528 nM.
The like results for `CC(C)c1nn(C2CCCCC2)c2nc(C(=O)O)cc(-c3cnc(N4CCC(C#N)CC4)nc3)c12` [compound 235, 4-[2-(4-cyanopiperidin-1-yl)pyrimidin-5-yl]-1-cyclohexyl-3-(propan-2-yl)-1H-pyrazolo[3,4-b]pyridine-6-carboxylic acid] were, in that order, 403.1%, 206.8%, 743 nM and 832 nM.
Consider `CC(C)c1nn(C2CCCC2)c2nc(C(=O)O)cc(-c3ccc(N(C)C)nc3)c12` [compound 83, 1-cyclopentyl-4-[6-(dimethylamino)pyridin-3-yl]-3-(propan-2-yl)-1H-pyrazolo[3,4-b]pyridine-6-carboxylic acid], for which the “% Activation” value in assay [1] is 332.65%; in assay [2] (setting [3]), 142.25%. For the same molecule, the EC50 came out at 1050 nM in assay [1] and 1470 nM in assay [2] (setting [4]).
For `Cc1cccc(-n2nc(C(C)C)c3c(N4CC5(CCC5)C4)cc(C(=O)O)nc32)c1` [compound 273, 4-(2-azaspiro[3.3]heptan-2-yl)-1-(3-methylphenyl)-3-(propan-2-yl)-1H-pyrazolo[3,4-b]pyridine-6-carboxylic acid] the same measures were 311.05%, 100.16%, 985 nM and 1020 nM.
For `O=C(O)c1cc(N2CCC(COCc3ccccc3)CC2)c2c(C3CCC3)nn(-c3ccccc3)c2n1` [compound 427, 4-{4-[(benzyloxy)methyl]piperidin-1-yl}-3-cyclobutyl-1-phenyl-1H-pyrazolo[3,4-b]pyridine-6-carboxylic acid], the “% Activation” value was 418.9% in assay [1] and 200.4% in assay [2] (setting [5]). Also, the EC50 in assay [1] came to 577 nM; in assay [2] (setting [5]), 663 nM.
In the case of `CC(C)c1nn(-c2ccc(F)cc2)c2nc(C(=O)O)cc(N3CCC4(CCN(C)CC4)CC3)c12` [compound 781, 1-(4-fluorophenyl)-4-(9-methyl-3,9-diazaspiro[5.5]undecan-3-yl)-3-(propan-2-yl)-1H-pyrazolo[3,4-b]pyridine-6-carboxylic acid], in assay [1], the “% Activation” value worked out at 368.7% and the EC50 came to 1560 nM. Also, in assay [2] (setting [5]), the “% Activation” value is on record as 154% and the half-maximal effective concentration (EC50) stood at 1670 nM.
Regarding `CN(C)c1ccc(-c2cc(C(=O)O)nc3c2c(C(C)(C)C)nn3C2CCCCC2)cc1` [compound 131, 3-tert-butyl-1-cyclohexyl-4-[4-(dimethylamino)phenyl]-1H-pyrazolo[3,4-b]pyridine-6-carboxylic acid], the “% Activation” value worked out at 388.7% in assay [1] and 153.75% in assay [2] (setting [3]). In addition, the EC50 was 620 nM in assay [1] and 899 nM in assay [2] (setting [4]).
The like results for `Cc1nn(-c2ccccc2)c2nc(C(=O)O)cc(O[C@H]3C[C@@H](N(C)C)C3)c12` [compound 340, 4-{[cis-3-(dimethylamino)cyclobutyl]oxy}-3-methyl-1-phenyl-1H-pyrazolo[3,4-b]pyridine-6-carboxylic acid] were, in that order, 146%, 18.86%, 4170 nM and 7500 nM.
For the molecule `O=C(O)c1cc(N2CCC(N3CCC(F)(F)CC3)CC2)c2c(C3CCC3)nn(-c3ccc(F)cc3)c2n1` [compound 850, 3-cyclobutyl-4-(4,4-difluoro[1,4′-bipiperidin]-1′-yl)-1-(4-fluorophenyl)-1H-pyrazolo[3,4-b]pyridine-6-carboxylic acid], in assay [1], the “% Activation” value was determined as 615.6% and the EC50 is 88.9 nM. For the same molecule, in assay [2] (setting [5]), the “% Activation” value turned out to be 234.4% and the EC50 was found to be 74.1 nM.
Turning to `Cc1nn(-c2ccccc2)c2nc(C(=O)O)cc(-c3ccc(N(C)C4CCC4)cc3)c12` [compound 115, 4-{4-[cyclobutyl(methyl)amino]phenyl}-3-methyl-1-phenyl-1H-pyrazolo[3,4-b]pyridine-6-carboxylic acid], the “% Activation” value in assay [1] turned out to be 354%; in assay [2] (setting [3]), 152.3%. In addition, the 50% effective concentration (EC50) in assay [1] was found to be 1280 nM; in assay [2] (setting [4]) it was 1870 nM.
